Patent EP1087941B9, “THIOLESTERS AND USES THEREOF” (THE UNITED STATES OF AMERICA, as represented by THE …, priority 1998, dated 1999)
Read-outs that look alike come from different tables or passages of the source.

Assays:
[1] = system: HIV-1 virus; assay: Virus inactivation determined by PCR assay for intracellularly synthesized viral RNA; assay type: cell-based
Excerpt: The thiolester-treated virions can also be tested for infectivity. The virions are suspended in media (rather than solubilized) and added to target cells. The cultures are then examined to determine whether the virions are still active. To determine whether the treated virus particles are active, the cells are monitored for the presence of intracellularly-synthesized viral RNA using, for example, the polymerase chain reaction (PCR) (Rice (1993) Proc. Natl. Acad. Sci. USA 90:9721; Turpin (1996) J. Virol. 70:6180). Alternatively, cytoprotection assays can be used (Weislow (1993) J. Natl. Cancer Inst. 81:577).
An example of a compound which can be used as a control in the gel mobility shift assay is azodicarbonamide (ADA), a compound which is commercially available from the Aldrich Chemical Company (Milwaukee, WI).

[2] = target: T1, Virion-associated NCp7 proteins from cell-free HIV-1MN (Human immunodeficiency virus type 1 group M subtype B, UniProt P05888); assay: Intravirion NCp7 cross-linking, non-reducing Western blotting
T1 construct: an attack on the mature NCp7 retroviral zinc fingers in the cell-free virus; endogenous in cells
Experimental: The interaction of zinc finger inhibitors, such as the thiolesters of the invention, with cell-free virus can result in modification of intravirion NCp7 protein and loss of infectivity. Virion-associated NCp7 proteins from cell-free HIV-1MN were treated with thiolester compounds 44 and 45. They were also evaluated by non-reducing Western blotting using HIV-1 NCp7-specific antibodies. […] Cross-linking by compound 45 was due to formation of intermolecular disulfide bonds because reduction with 2-mercaptoethanol (β-ME) completely reversed the gel retardation.
Virion cross linking was performed as described by Rice (1995) Science 270:1194-1197 and Turpin (1997) Antiviral Chem. Chemother. 8:60-67. Briefly, highly purified HIV-1 MN (11.8 µg total protein) was incubated for 2 hour with concentrations of compound. Virions were concentrated and residual compound was removed by centrifugation (18,000 x g, 1 h, 4°C). The viral pellet was solubilized in 0.5 M Tris-HCl,(pH 6.8), 50% glycerol, 8% SDS and 0.4% bromophenol blue and proteins resolved by Western blotting. Western blotting to detect the expression of HIV-1 proteins in U1 cells or virus pellets for virion cross-linking experiments was carried out as described by Turpin (1996) J. Virol. 70:6180-6189. Briefly, 50 µg of total cellular protein for U1 experiments or the total virion pellet (11.8 µg total viral protein) for NCp7 cross linking studies was resolved on 4 to 20% polyacrylamide gels in SDS with Tris-Glycine (Novex, San Diego CA). Samples for reduced gels were boiled for 5 min in the presence of 5% β-ME prior to loading. Resolved proteins were electroblotted on to polyvinylidene difluoride (PVDF) membranes, and HIV-1 specific proteins were detected using a mixture of goat anti- HIV-1 NCp7 and p24 or anti-NCp7 for virion proteins alone (a kind gift of L. E. Henderson, AIDS Vaccine Program NCI-FCRDC, Frederick, MD). Western blots were developed using standard chemiluminescence methodologies, as produced and described by Dupont-NEN, Wilmington, DE.
Purified concentrated retrovirus and antisera against the purified NC protein of the virus can be used to test the ability of a specific compound to penetrate the virus and react with the NC protein by forming disulfide complexes in the core of the virus. Compound are mixed with the whole retrovirus under reaction conditions appropriate for the compound. The virus is then removed from the reagent by centrifugation and disrupted in, e.g., standard SDS-PAGE sample buffer with (reduced) and without (non-reduced) 2-mercaptoethanol. […] Thus, compounds of interest (i.e., those which cause cross-linking), including the thiolesters of the invention, reduce the amount of monomeric zinc finger protein detected.

[3] = system: HIV-1RF; assay: XTT cytoprotection assay (antiviral activity); assay type: cell-based
Excerpt: (§1) One exemplary means to determine antiviral activity is with CEM-SS cells and virus (e.g., HIV-1RF) (MOI = 0.01) using the XTT (2,3-bis[2-methoxy- 4-nitro-5-sulfophenyl] -5- [(phenylamino)carbonyl]-2H-tetrazolium hydroxide) cytoprotection assay, as described by Rice (1993) PNAS 90:9721-9724, and Rice (1997) Antimicrob. Agents Chemother. 41:419-426. Briefly, cells are infected with HIV-1RF (or other virus to be tested) in the presence of various dilutions of test compounds (thiolesters and controls). The cultures are incubated for seven days. During this time control cultures without protective compounds (i.e., compounds with anti-viral activity) replicate virus, induce syncytia, and result in about 90% cell death. The cell death is measured by XTT dye reduction. XTT is a soluble tetrazolimn dye that measures mitochondrial energy output, similar to MTT. Positive controls using dextran sulfate (an attachment inhibitor) or 3'-Azido -2'-3'-dideoxythymidine, AZT (a reverse transcriptase inhibitor) are added to each assay. Individual assays are done in duplicate using a sister plate method.
(§2) Effective antiviral concentrations providing 50% cytoprotection (EC50), and cellular growth inhibitory concentrations causing 50% cytotoxicity (IC50) are calculated.

[4] = system: CEM-SS cells; assay: cells; assay type: cell-based; conditions: Homo sapiens, CEM-SS
Excerpt: as §1, §2

[5] = target: T2, recombinant HIV-1 NCp7 protein (Human immunodeficiency virus type 1 group M subtype B, UniProt P03347); assay: Trp37 zinc finger fluorescence (zinc ejection) assay; assay type: biochemical; conditions: for Zinc Finger Reactivity RFU/ min: average decrease in relative fluorescence units over 30 min
T2 construct: within the nucleocapsid p7 (NCp7) protein portion of the polyprotein
Experimental: Zinc finger reactivity was measured using a Zn specific fluorochrome, TSQ, N-(6-methoxy-8-quinolyl) -p-toluenesulfonamide, assay or a Trp37 zinc finger fluorescence assay. Fluorescent measurements of the Trp37 residue in the C-terminal finger of recombinant HIV-1 NCp7 protein were performed as described by Rice (1995) Science 270:1194-1197; Rice (1997) Antimicrob. Agents Chemother. 41:419-426. Measurement of Zn ejection from both fingers was measured using the Zn-selective fluorchrome probe TSQ (Molecular Probes, Eugene OR) as described by Rice (1996) J. Med. Chem 39:3606-3616. Measurement of the ability of NCp7 to bind to a DNA oligomer, a 44 mer: […] (SEQ ID NO:1), analogous to the HIV-1 RNA packaging site was carried out as described by Huang (1998) J. Med. Chem. 41:1371-1381, see also, Rossio (1998) HIV Pathogenesis and Treatment: Keystone Symposium on Molecular and Cellular Biology, Abstract # 4082. Briefly, 50 nM NCp7 was treated with test compounds for 1 hour at RT in […] buffer containing 10% glycerol and 50 mM Tris-HCl (pH 7.5). Labeled oligomer (0.1 picomole, end labeled [^32P]) was added in an equal volume of buffer containing 10% glycerol, 50 mM Tris-HCl (pH 7.5), 400 mM KCl and 40 mM MgCl2. The reaction was continued for 15 min at room temperature, and a total of […] (or 1/4 of the total reaction volume) was separated on nondenaturing 4.5% polyacrylamide gels in 0.5X Tris-Borate electrophoresis buffer. NCp7-oligomer complexes were visualized by autoradiography.
Changes in the intrinsic fluorescence of aromatic protein moieties are commonly used to monitor a reaction which involves a change in protein conformation. In the present invention, fluorescence can be used to monitor the loss of metal ion from a zinc finger, e.g., the loss of zinc from a CCHC retroviral zinc finger protein, after contact with a thiolester of the invention. The intrinsic fluorescence of Trp 37 in the second zinc finger of HIV-1 NC protein has been used to monitor nucleic acid binding and conformation of the zinc finger complex (see, Summers (1992) supra).
Zinc ejection is measured by the ability of compounds to chemically attack the cysteines in purified NCp7 protein resulting in a loss of fluorescence due to the movement of the tryptophan 37 residue from an exposed to an internal position on the protein. Zinc ejection is measured and expressed as either percent decrease in total fluorescence or decrease in relative fluorescence units per min during a 30 min assay (RFU/min). A thiolester is considered within the scope of the invention if any amount of zinc ejection is detected. For example, compound 50 has a zinc ejection rate of 0.86 RFU/min.

[6] = Human immunodeficiency virus 1, read-out: Antiviral Activity EC50
[7] = read-out: Antiviral Activity IC50%
[8] = read-out: IC50 / cellular toxicity
[9] = Human immunodeficiency virus 1, read-out: Antiviral Activity EC50%
[10] = read-out: Antiviral Activity IC50

| SMILES | IC50 [4, 7] [µM] | EC50 [3, 9] [µM] | IC50 [4, 10] [µM] | Zinc Finger Reactivity RFU/ min ([5]; Table 6) [RFU/ min] | further results |
| --- | --- | --- | --- | --- | --- |
| NC(=O)N=NC(N)=O [ADA, azodicarbonamide] |  |  |  |  | inactivation of HIV-1 virus [1]: inactivates HIV-1 virus |
| Cc1cn([C@H]2C[C@H](N=[N+]=[N-])[C@@H](CO)O2)c(=O)[nH]c1=O [AZT, 3'-Azido-2'-3'-dideoxythymidine, reference compound] |  |  |  |  | intravirion NCp7 cross-linking [2]: failed to cross-link NCp7 |
| CC(=O)NS(=O)(=O)c1ccc(NC(=O)c2ccccc2SC(C)=O)cc1 [Compound 40] | 56.7 |  |  |  | EC50 [3, 6]: 2.8 µM; IC50 [4, 8]: ~50 µM; Zinc Finger Reactivity RFU/ min ([5]; Table 5): 4.2 RFU/ min |
| CC(=O)NS(=O)(=O)c1ccc(NC(=O)c2ccccc2SC(=O)c2ccccc2)cc1 [Compound 41] | 45.7 |  |  |  | EC50 [3, 6]: 2.6 µM; IC50 [4, 8]: ~50 µM; Zinc Finger Reactivity RFU/ min ([5]; Table 5): 2.2 RFU/ min |
| COc1ccc(C(=O)Sc2ccccc2C(=O)Nc2ccc(S(=O)(=O)NC(C)=O)cc2)cc1 [Compound 42] | 43.7 |  |  |  | EC50 [3, 6]: 2.8 µM; IC50 [4, 8]: ~50 µM; Zinc Finger Reactivity RFU/ min ([5]; Table 5): 3.5 RFU/ min |
| O=C(CCCCBr)Sc1ccccc1C(=O)Nc1ccc(S(=O)(=O)c2ccc([N+](=O)[O-])cc2)cc1 [Compound 46] |  | 1.6 | 21.7 | 1 |  |
| NS(=O)(=O)c1ccc(CNC(=O)c2ccccc2SC(=O)CCCC[n+]2ccccc2)cc1 [Compound 48] |  | 1.1 | 55 | 1.4 | IC50 [4, 8]: 55 µM |
| O=C(CCCCBr)Sc1ccccc1C(=O)Nc1ccc(S(=O)(=O)c2ccc(NS(=O)(=O)Cc3ccccc3[N+](=O)[O-])cc2)cc1 [Compound 49] |  | > 316 | > 316 | 1.9 |  |
| O=C(CCCC[n+]1ccccc1)Sc1ccccc1C(=O)Nc1ccc(S(=O)(=O)c2ccc(NS(=O)(=O)Cc3ccccc3[N+](=O)[O-])cc2)cc1 [Compound 50] |  | 2.9 | > 316 | 0.86 | zinc finger reactivity / zinc ejection rate [5]: 0.86 RFU/min |
| CC(=O)Nc1ccc(S(=O)(=O)c2ccc(NC(=O)c3ccccc3SC(=O)CCCC[n+]3ccccc3)cc2)cc1 [Compound 51] |  | 4.6 | 288 | 1.7 |  |
| CC(=O)Nc1cccc(S(=O)(=O)c2cccc(NC(=O)c3ccccc3SC(=O)CCCC[n+]3ccccc3)c2)c1 [Compound 52] |  | 4.9 | 205 | 1.1 |  |
| CC(=O)NS(=O)(=O)c1ccc(NC(=O)c2ccccc2SC(=O)CCC[n+]2ccccc2)cc1 [Compound 54] | 175 | 10.1 |  |  | Zinc Finger Reactivity RFU/ min ([5]; Table 10): 2.2 RFU/ min |
| CC(=O)NS(=O)(=O)c1ccc(NC(=O)c2ccccc2SC(=O)CCCCC[n+]2ccccc2)cc1 [Compound 55] | 69.7 | 10.5 |  |  | Zinc Finger Reactivity RFU/ min ([5]; Table 10): 1.9 RFU/ min |
| CC(=O)NS(=O)(=O)c1ccc(NC(=O)c2ccccc2NC(=O)CCCC[n+]2ccccc2)cc1 [Compound 56] | > 316 | > 316 |  |  | antiviral activity ([3]; result in words): inactive; Zinc Finger Reactivity RFU/ min ([5]; Table 10): 2.6 RFU/ min |
| CC(=O)NS(=O)(=O)c1ccc(NC(=O)c2ccccc2SC(=O)CCCC[n+]2cccc(Cl)c2)cc1 [Compound 57] | 264 | 54 |  |  | Zinc Finger Reactivity RFU/ min ([5]; Table 10): 0.2 RFU/ min |
